Data on 21 compounds can be found in ChEMBL document CHEMBL1909046, “DrugMatrix in vitro pharmacology data”.

Assay [1] can be described thus: DRUGMATRIX: Glutamate, NMDA, Agonism radioligand binding (ligand: [3H] CGP-39653). In kind it is cell membranes, Rattus norvegicus, Wistar, Cerebral cortex, Membrane. The note with it: Not Active = under 50% inhibition at 10 µM.
For assay [2], the target named is T1, Alpha-1D adrenergic receptor (Homo sapiens, UniProt P25100). Further: in other assays of this panel Not Active means under 50% inhibition at 10 µM.
T1 sequence (P25100 whole entry): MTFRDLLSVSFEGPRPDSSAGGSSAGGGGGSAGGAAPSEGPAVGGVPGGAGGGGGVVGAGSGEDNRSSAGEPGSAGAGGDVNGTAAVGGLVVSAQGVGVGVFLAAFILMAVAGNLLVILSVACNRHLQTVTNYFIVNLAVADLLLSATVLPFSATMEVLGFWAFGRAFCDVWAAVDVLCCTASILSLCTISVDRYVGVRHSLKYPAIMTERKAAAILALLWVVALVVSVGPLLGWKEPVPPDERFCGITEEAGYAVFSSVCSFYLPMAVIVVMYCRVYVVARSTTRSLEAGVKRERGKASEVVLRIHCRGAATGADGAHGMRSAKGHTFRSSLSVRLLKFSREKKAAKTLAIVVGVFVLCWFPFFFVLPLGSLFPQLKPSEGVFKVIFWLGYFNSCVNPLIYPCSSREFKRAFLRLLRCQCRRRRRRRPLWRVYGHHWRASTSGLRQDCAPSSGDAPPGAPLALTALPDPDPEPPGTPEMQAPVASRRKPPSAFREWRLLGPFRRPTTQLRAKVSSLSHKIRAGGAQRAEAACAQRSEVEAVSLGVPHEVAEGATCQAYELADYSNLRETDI
In kind it is cell membranes, HEK293, Membrane. The following applies: for IC50: hek293.

Assay [3] has as its target Beta-2 adrenergic receptor (Homo sapiens, UniProt P07550). Briefly: DRUGMATRIX: Adrenergic beta2 radioligand binding (ligand: [3H] CGP-12177). It is filed as cell membranes, CHO, Membrane. The following applies: cho; Not Active = under 50% inhibition at 10 µM.
Another assay deals with Vasopressin V1a receptor (Homo sapiens, UniProt P37288). In kind it is cell membranes, Membrane. The note with it: hek293.
Assay [4] addresses 5-hydroxytryptamine receptor 1B (Rattus norvegicus, UniProt P28564). It is filed as cell membranes, Wistar, Cerebral cortex, Membrane.
Assay [5] can be described thus: DRUGMATRIX: Sigma2 radioligand binding (ligand: [3H] Ifenprodil). In kind it is cell membranes, Rattus norvegicus, Wistar, Brain, Membrane. The note with it: Not Active = under 50% inhibition at 10 µM.

pIC50, pKi: −log10 of the molar value.

Chain of Vasopressin V1a receptor (P37288 whole entry): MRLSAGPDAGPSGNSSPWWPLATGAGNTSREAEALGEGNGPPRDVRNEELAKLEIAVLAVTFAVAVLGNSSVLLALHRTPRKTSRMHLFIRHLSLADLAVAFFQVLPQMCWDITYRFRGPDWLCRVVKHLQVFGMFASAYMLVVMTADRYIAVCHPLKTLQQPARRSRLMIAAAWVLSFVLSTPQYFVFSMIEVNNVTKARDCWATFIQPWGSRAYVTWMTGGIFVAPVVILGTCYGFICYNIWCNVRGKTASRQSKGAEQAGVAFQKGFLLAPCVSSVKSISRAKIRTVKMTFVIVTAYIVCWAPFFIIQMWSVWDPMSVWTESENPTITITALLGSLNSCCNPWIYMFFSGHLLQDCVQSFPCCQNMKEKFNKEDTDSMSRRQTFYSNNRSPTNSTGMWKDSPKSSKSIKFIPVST
Chain of 5-hydroxytryptamine receptor 1B (P28564 whole entry): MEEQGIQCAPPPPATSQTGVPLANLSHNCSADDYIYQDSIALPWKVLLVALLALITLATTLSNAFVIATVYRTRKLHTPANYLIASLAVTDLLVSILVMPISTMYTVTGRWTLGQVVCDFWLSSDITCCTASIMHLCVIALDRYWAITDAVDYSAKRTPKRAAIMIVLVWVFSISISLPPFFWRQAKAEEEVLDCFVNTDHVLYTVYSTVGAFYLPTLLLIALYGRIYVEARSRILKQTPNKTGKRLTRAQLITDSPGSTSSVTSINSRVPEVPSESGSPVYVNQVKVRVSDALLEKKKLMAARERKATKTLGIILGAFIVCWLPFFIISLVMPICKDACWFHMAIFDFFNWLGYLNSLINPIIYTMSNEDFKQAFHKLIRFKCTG
Chain of Beta-2 adrenergic receptor (P07550 whole entry): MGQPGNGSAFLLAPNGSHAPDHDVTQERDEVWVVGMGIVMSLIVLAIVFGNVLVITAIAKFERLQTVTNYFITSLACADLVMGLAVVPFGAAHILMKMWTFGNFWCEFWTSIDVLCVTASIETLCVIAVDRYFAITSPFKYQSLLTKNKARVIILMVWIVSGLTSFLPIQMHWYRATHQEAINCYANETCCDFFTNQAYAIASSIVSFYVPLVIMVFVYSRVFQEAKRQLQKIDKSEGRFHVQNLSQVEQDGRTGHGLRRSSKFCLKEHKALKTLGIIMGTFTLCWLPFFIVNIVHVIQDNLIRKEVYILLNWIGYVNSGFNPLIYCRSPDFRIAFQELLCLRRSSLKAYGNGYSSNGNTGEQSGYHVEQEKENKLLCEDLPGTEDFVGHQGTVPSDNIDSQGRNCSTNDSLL

As to `CN1C[C@H](CNC(=O)OCc2ccccc2)C[C@@H]2c3cccc4c3c(cn4C)C[C@H]21` [METERGOLINE], the IC50 result (in assay [1]; in assay [3]; on Vasopressin V1a receptor; in assay [5]) was “Not Active” in each case. Moreover, the Ki entry in assay [1] and in assay [5] was “Not Active” throughout. Besides, the pIC50 (in general, −log10 of the IC50, conventionally taken in molar units) was 6.87 in assay [2] (read-out: IC50) and 7.72 in assay [4] (read-out: IC50). The results for the negative logarithm of the Ki (pKi) in assay [2] (read-out: Ki) and in assay [4] (read-out: Ki) were 7.17 and 7.96, respectively.

Take `Oc1ccc(/C=C/c2cc(O)cc(O)c2)cc1` [RESVERATROL]: the IC50 entry (in assay [1]; in assay [2]; in assay [3]; at Vasopressin V1a receptor; in assay [4]; in assay [5]) was “Not Active” throughout. For the same compound, the Ki entry in assay [1] and in assay [5] was “Not Active” each time.

For `CC1=C(/C=C/C(C)=C/C=C/C(C)=C/C(=O)O)C(C)(C)CCC1` [TRETINOIN], the IC50 entry (in assay [1]; in assay [2]; in assay [3]; against Vasopressin V1a receptor; in assay [4]; in assay [5]) was “Not Active” each time. Also, the Ki result in assay [1] and in assay [5] was “Not Active” each time.

As for `CC[C@@]1(O)C(=O)OCc2c1cc1n(c2=O)Cc2cc3c(CN(C)C)c(O)ccc3nc2-1` [TOPOTECAN], the IC50 entry (in assay [1]; in assay [2]; in assay [3]; at Vasopressin V1a receptor; in assay [4]; in assay [5]) was “Not Active” in each case. The Ki entry in assay [1] and in assay [5] was “Not Active” each time.

Consider `O=C(OC[C@H]1O[C@@H](OC(=O)c2cc(O)c(O)c(OC(=O)c3cc(O)c(O)c(O)c3)c2)[C@H](OC(=O)c2cc(O)c(O)c(OC(=O)c3cc(O)c(O)c(O)c3)c2)[C@@H](OC(=O)c2cc(O)c(O)c(OC(=O)c3cc(O)c(O)c(O)c3)c2)[C@@H]1OC(=O)c1cc(O)c(O)c(OC(=O)c2cc(O)c(O)c(O)c2)c1)c1cc(O)c(O)c(OC(=O)c2cc(O)c(O)c(O)c2)c1` [TANNIC ACID], for which the IC50 entry (in assay [1]; in assay [2]; in assay [3]; against Vasopressin V1a receptor; in assay [4]; in assay [5]) was “Not Active” throughout. Moreover, the Ki result in assay [1] and in assay [5] was “Not Active” throughout.

Regarding `CC(Cl)(Cl)Cl` [TRICHLOROETHANE], the IC50 entry (in assay [1]; in assay [2]; in assay [3]; against Vasopressin V1a receptor; in assay [4]; in assay [5]) was “Not Active” throughout. Further, the Ki result in assay [1] and in assay [5] was “Not Active” each time.

For `C=CCc1ccc2c(c1)OCO2` [SAFROLE], the IC50 entry (in assay [1]; in assay [2]; in assay [3]; against Vasopressin V1a receptor; in assay [4]; in assay [5]) was “Not Active” each time. Also, the Ki entry in assay [1] and in assay [5] was “Not Active” throughout.

As to `O=C1CC[C@@]2(O)[C@H]3Cc4ccc(O)c5c4[C@@]2(CCN3CC2CC2)[C@H]1O5` [NALTREXONE], the IC50 entry (in assay [1]; in assay [2]; in assay [3]; against Vasopressin V1a receptor; in assay [4]; in assay [5]) was “Not Active” in each case. For the same compound, the Ki entry in assay [1] and in assay [5] was “Not Active” throughout.

`CN1C(=O)OC(C)(C)C1=O` [TRIMETHADIONE]: the IC50 result (in assay [1]; in assay [2]; in assay [3]; at Vasopressin V1a receptor; in assay [4]; in assay [5]) was “Not Active” in each case. Also, the Ki entry in assay [1] and in assay [5] was “Not Active” throughout.

For `CC(O)C(=O)O` (stereo not given) [LACTIC ACID], the IC50 result (in assay [1]; in assay [2]; in assay [3]; at Vasopressin V1a receptor; in assay [4]; in assay [5]) was “Not Active” throughout. In addition, the Ki entry in assay [1] and in assay [5] was “Not Active” throughout.

In the case of `CS(=O)(=O)c1ccc(C2=C(c3ccccc3)C(=O)OC2)cc1` [ROFECOXIB], the IC50 result (in assay [1]; in assay [2]; in assay [3]; on Vasopressin V1a receptor; in assay [4]; in assay [5]) was “Not Active” in each case. In addition, the Ki result in assay [1] and in assay [5] was “Not Active” each time.

Consider `C[N+]1(C)[C@@H]2C[C@@H](OC(=O)[C@H](CO)c3ccccc3)C[C@H]1[C@@H]1O[C@@H]12.[Br-]` [METHSCOPOLAMINE BROMIDE], for which the IC50 entry (in assay [1]; in assay [2]; in assay [3]; against Vasopressin V1a receptor; in assay [4]; in assay [5]) was “Not Active” in each case. In addition, the Ki entry in assay [1] and in assay [5] was “Not Active” throughout.

In the case of `Cc1nnc(NS(=O)(=O)c2ccc(N)cc2)s1` [SULFAMETHIZOLE], the IC50 result (in assay [1]; in assay [2]; in assay [3]; against Vasopressin V1a receptor; in assay [4]; in assay [5]) was “Not Active” each time. Besides, the Ki result in assay [1] and in assay [5] was “Not Active” each time.

For `CC(=O)O[C@]1(C(C)=O)CC[C@H]2[C@@H]3C[C@H](C)C4=CC(=O)CC[C@]4(C)[C@H]3CC[C@@]21C` [MEDROXYPROGESTERONE ACETATE], the IC50 result (in assay [1]; in assay [2]; in assay [3]; against Vasopressin V1a receptor; in assay [4]; in assay [5]) was “Not Active” each time. The Ki result in assay [1] and in assay [5] was “Not Active” in each case.

`CC1(C)[C@H](C(=O)O)N2C(=O)C[C@H]2S1(=O)=O` [SULBACTAM]: the IC50 result (in assay [1]; in assay [2]; in assay [3]; against Vasopressin V1a receptor; in assay [4]; in assay [5]) was “Not Active” each time. The Ki entry in assay [1] and in assay [5] was “Not Active” throughout.

For the compound `O=C(O)c1cc(/N=N/c2ccc(S(=O)(=O)Nc3ccccn3)cc2)ccc1O` [SULFASALAZINE], the IC50 result (in assay [1]; in assay [2]; in assay [3]; at Vasopressin V1a receptor; in assay [4]; in assay [5]) was “Not Active” in each case. The Ki entry in assay [1] and in assay [5] was “Not Active” each time.

With `CCN(CC)CCNC(=O)c1cc(Cl)c(N)cc1OC` [METOCLOPRAMIDE], the IC50 entry (in assay [1]; in assay [2]; in assay [3]; against Vasopressin V1a receptor; in assay [4]; in assay [5]) was “Not Active” throughout. For the same compound, the Ki result in assay [1] and in assay [5] was “Not Active” throughout.

With `COC(=O)Nc1nc2ccc(C(=O)c3ccccc3)cc2[nH]1` [MEBENDAZOLE], the IC50 result (in assay [1]; in assay [2]; in assay [3]; against Vasopressin V1a receptor; in assay [4]; in assay [5]) was “Not Active” throughout. In addition, the Ki entry in assay [1] and in assay [5] was “Not Active” each time.

Consider `Cc1ccnc(NS(=O)(=O)c2ccc(N)cc2)n1` [SULFAMERAZINE], for which the IC50 entry (in assay [1]; in assay [2]; in assay [3]; against Vasopressin V1a receptor; in assay [4]; in assay [5]) was “Not Active” throughout. The Ki result in assay [1] and in assay [5] was “Not Active” each time.

`Cc1cccc(C)c1NC(=O)C(C)N` (stereo not given) [TOCAINIDE]: the IC50 entry (in assay [1]; in assay [2]; in assay [3]; at Vasopressin V1a receptor; in assay [4]; in assay [5]) was “Not Active” in each case. Moreover, the Ki result in assay [1] and in assay [5] was “Not Active” throughout.

As to `CC#C[C@]1(O)CC[C@H]2[C@@H]3CCC4=CC(=O)CCC4=C3[C@@H](c3ccc(N(C)C)cc3)C[C@@]21C` [MIFEPRISTONE], the IC50 entry (in assay [1]; in assay [2]; in assay [3]; on Vasopressin V1a receptor; in assay [4]; in assay [5]) was “Not Active” throughout. Further, the Ki entry in assay [1] and in assay [5] was “Not Active” each time.
